Reference: US20100093532A1, “Pesticidal Mixtures Comprising Phenylsemicarbazone and Clothianidin” (BASF SE, priority 2007, published 2010)

Test system: Mediterranean fruitfly (Ceratitis capitata)
Assay: Control of Mediterranean fruitfly, egg and larval mortality in 96-well microtiter plates with insect diet
Type: in vivo
Settings: sprayed onto insect diet with C. capitata eggs, 5 days at 28±1° C., 80±5% RH, egg and larval mortality visually assessed
Procedure: For evaluating control of Mediterranean fruitfly (Ceratitis capitata) the test unit consisted of 96-well-microtiter plates containing an insect diet and 50-80 C. capitata eggs. The compounds or mixtures were formulated using a solution containing 75% water and 25% DMSO. Different concentrations of formulated compounds or mixtures were sprayed onto the insect diet at 5 μl, using a custom built micro atomizer, at two replications.
For experimental mixtures in these tests identical volumes of both mixing partners at the desired concentrations respectively, were mixed together.
After application, microtiter plates were incubated at 28±1° C., 80±5% RH (relative humidity) for 5 days. Egg and larval mortality was then visually assessed.

| SMILES | Average Control (%) (Metaflumizone 20 ppm) | Average Control (%) (Clothianidin 2 ppm) |
| --- | --- | --- |
| N#Cc1ccc(CC(=NNC(=O)Nc2ccc(OC(F)(F)F)cc2)c2cccc(C(F)(F)F)c2)cc1 (racemic) [Metaflumizone, 2-[2-(4-cyanophenyl)-1-[3-(trifluoromethyl)phenyl]ethylidene]-N-[4-(trifluoromethoxy)phenyl]hydrazinecarboxamide] | 0 |  |
| CN/C(=N\[N+](=O)[O-])NCc1cnc(Cl)s1 [Clothianidin, (E)-1-(2-chloro-1,3-thiazol-5-ylmethyl)-3-methyl-2-nitroguanidine] |  | 0 |
